Results from patent US12245999B2, “Valproic acid for the treatment or prevention of pathological conditions associated with excess fibrin deposition and/or thrombus formation” (Cereno Scientific AB, priority 2014, dated 2025).
Where two headings read alike, the source gives them in different places.

How the values were obtained:
[1] = tested on: PAI-1; assay: Proof-of-concept cross-over study in healthy subjects: plasma PAI-1 before and after valproic acid; assay type: in vivo, human; conditions: 500 mg (Ergenyl Retard) twice daily during 14 days, p<0.05
Protocol: (§1) The effects of VPA on PAI-1 were analysed in two different proof-of-concept studies in healthy subjects as well as in patients with manifest atherosclerotic disease. […] PAI-1 plasma levels were measured in the morning at the first day of the study as well as at the end of the treatment period with VPA (see example 2 for details on the PAI-1 analysis).
In the first study, 10 healthy non-smoking white male subjects (with mean BMI of approximately 26), aged 50-70 years were included and treated with valproic acid 500 mg (Ergenyl Retard, Sanofi) twice daily during 14 days.
(§2) The study comprises 20 patients with TIA/minor stroke. Patients are investigated before and after oral treatment with 400 mg valproic acid once time daily at 11 pm for 2 weeks. Plasma PAI-1 levels and plasma concentrations of valproic acid is followed daily during the study period at the following time-points: 3 am, 6 am, 10 am, 16 pm, 22 pm PAI-1 levels are measured by commercially available ELISA-kits (Coaliza PAI-1, Chromogenix AB) and the plasma concentration of valproic acid an metabolites thereof is analyzed according to clinical routine at the Sahlgrenska University laboratory, Gothenburg, Sweden.

[2] = tested on: PAI-1; assay: Proof-of-concept cross-over study in patients with a history of myocardial infarction: plasma PAI-1 before and after valproic acid; assay type: in vivo, human; conditions: midmorning, p=0.01; for reduction in circulating plasma PAI-1 levels: 16 male patients with history of myocardial infarction, 500 mg (Ergenyl Retard) twice daily during 28 days on top of ordinary prescription
Protocol: as §1
In the second study, 16 non-smoking white male patients, aged 50-80 years with a history of a myocardial infarction were included. On top of their ordinary prescription (beta-blocker, ACE-inhibitor, statin, aspirin) they were treated with valproic acid 500 mg (Ergenyl Retard, Sanofi), twice daily during 28 days.
as §2

[3] = tested on: PAI-1; assay: In vitro cultured endothelial cells: PAI-1 mRNA / production after VPA treatment; assay type: cell-based
[4] = tested on: PAI-1; assay: In vivo model in mouse: plasma PAI-1; conditions: in vivo model in mouse (unpublished data)
[5] = tested on: PAI-1; assay: Intermediate endpoint study in patients with TIA/minor stroke: plasma PAI-1 (ELISA); assay type: in vivo, human; conditions: 20 patients with TIA/minor stroke, 400 mg enteric-coated tablet once daily at 11 pm for 2 weeks
Protocol: An intermediate endpoint proof-of-concept study is performed in patients with TIA/minor stroke investigated before and after treatment with Valproic acid. Valproic acid is administrated as an enteric-coated tablet with delayed absorption.
as §2

[6] = Clinical outcome study in high-risk patients: recurrent atherothrombotic events; assay type: in vivo, human; conditions: 400 mg once daily at 11 pm, long-term, expected
Protocol: A clinical outcome study is performed in high-risk patients who have experienced a recent major atherothrombotic cardiovascular event (myocardial infarction or TIA/ischemic stroke) to investigate the preventive effect of valproic acid treatment on the risk for recurrent events. The annual risk for a recurrent atherothrombotic event in the investigated population is estimated to approximately 7%. Patients are randomized in a parallel study design to receive double-blind oral treatment with 400 mg valproic acid (as in Example 2) or placebo once time daily at 11 pm, in addition to optimal conventional treatment. The event rate is monitored by Kaplan-Meyer statistics. The primary efficacy endpoint is the composite measure of either mortality, or non-fatal myocardial infarction or ischemic stroke. The study is event-driven to a total of 180 events.

[7] = tested on: PAI-1; conditions: in vivo model in pig (Svennerholm et al., PLoS One 2014); cited from earlier work

In the case of `CCCC(CCC)C(=O)O` [valproic acid, 2-propylpentanoic acid], the “reduction in circulating plasma PAI-1 levels” value ([1]; 10 healthy male subjects, mid-morning vs before treatment) is reported as “more than 50%”, the “circulating plasma PAI-1 level after treatment” value ([1]; healthy male subjects, mid-morning, 22.2 ng/ml before treatment) is reported as 10.8 ng/mL and the “reduction in circulating plasma PAI-1 levels” value [2] is reported as 45%. The “reduction in circulating plasma PAI-1 levels” value ([2]; listed as VPA) was “about 45%”, the “circulating plasma PAI-1 level after treatment” value ([2]; patients with history of myocardial infarction, 500 mg (Ergenyl Retard) twice daily during 28 days, 19.6 ng/ml before treatment) was 11 ng/mL and the “PAI-1 mRNA levels after VPA treatment” value [3] was “did not show a decrease”. For the same molecule, the “increase in PAI-1 production” value ([3]; slight but significant) was 30%, the “effects on plasma PAI-1” value [4] was “did not detect any effects” and the “plasma PAI-1 levels lowered after the treatment” value [5] was “approximately 30%”. For the same molecule, the “reduction of risk for recurrent atherothrombotic event” value ([6]; in addition to conventional therapy) was “approximately 30%”, the “annual absolute event rate” value ([6]; estimated approximately 7% without treatment) was “approximately 5%” and the “effects on plasma PAI-1” value [7] was “did not detect any effects”.
